# Data from the kinase profiling compilation of Christmann-Franck et al. (2016).
# Legend:
# Experiment in all cases: radiometric filter-binding kinase assay, Kinase HotSpot
# CLK4 (human) = CLK4 (human) (UniProt Q9HAZ1); details: compound 0.5 µM; ATP 10 µM
# GSK3B (human) = GSK3B (human) (UniProt P49841); details: compound 0.5 µM; ATP 10 µM
# MAP4K4 (human) = MAP4K4 (human) (UniProt O95819); details: compound 0.5 µM; ATP 10 µM
# BRSK2 (human) = BRSK2 (human) (UniProt Q8IWQ3); details: compound 0.5 µM; ATP 10 µM
# RAF1 (human) = RAF1 (human) (UniProt P04049); details: compound 0.5 µM; ATP 10 µM
# CSNK1D (human) = CSNK1D (human) (UniProt P48730); details: compound 0.5 µM
# NUAK1 (human) = NUAK1 (human) (UniProt O60285); details: compound 0.5 µM; ATP 10 µM
# MAPK14 (human) = MAPK14 (human) (UniProt Q16539); details: compound 0.5 µM; ATP 10 µM
# WNK2 (human) = WNK2 (human) (UniProt Q9Y3S1); details: compound 0.5 µM; ATP 10 µM
# NEK7 (human) = NEK7 (human) (UniProt Q8TDX7); details: compound 0.5 µM; ATP 10 µM
# NTRK2 (human) = NTRK2 (human) (UniProt Q16620); details: compound 0.5 µM; ATP 10 µM
# SRPK2 (human) = SRPK2 (human) (UniProt P78362); details: compound 0.5 µM; ATP 10 µM
# JAK2 JH1 JH2 (human) = JAK2 JH1 JH2 (human) (UniProt O60674); details: compound 0.5 µM; ATP 10 µM
# IRAK4 (human) = IRAK4 (human) (UniProt Q9NWZ3); details: compound 0.5 µM; ATP 10 µM
# PRKD1 (human) = PRKD1 (human) (UniProt Q15139); details: compound 0.5 µM; ATP 10 µM
# NLK (human) = NLK (human) (UniProt Q9UBE8); details: compound 0.5 µM; ATP 10 µM
# MARK4 (human) = MARK4 (human) (UniProt Q96L34); details: compound 0.5 µM; ATP 10 µM
# ACVR1B (human) = ACVR1B (human) (UniProt P36896); details: compound 0.5 µM; ATP 10 µM
# HIPK3 (human) = HIPK3 (human) (UniProt Q9H422); details: compound 0.5 µM; ATP 10 µM
# PIM1 (human) = PIM1 (human) (UniProt P11309); details: compound 0.5 µM; ATP 10 µM
# MAP3K9 (human) = MAP3K9 (human) (UniProt P80192); details: compound 0.5 µM; ATP 10 µM
# CAMK2D (human) = CAMK2D (human) (UniProt Q13557); details: compound 0.5 µM; ATP 10 µM
# TYRO3 (human) = TYRO3 (human) (UniProt Q06418); details: compound 0.5 µM; ATP 10 µM
# STK16 (human) = STK16 (human) (UniProt O75716); details: compound 0.5 µM; ATP 10 µM
# CDK4 CCND1 (human) = CDK4 CCND1 (human) (UniProt P24385+P11802); details: compound 0.5 µM
# GRK6 (human) = GRK6 (human) (UniProt P43250); details: compound 0.5 µM; ATP 10 µM
# SGK2 (human) = SGK2 (human) (UniProt Q9HBY8); details: compound 0.5 µM; ATP 10 µM
# PRKACA (human) = PRKACA (human) (UniProt P17612); details: compound 0.5 µM
# CDK5 CDK5R1 p35 (human) = CDK5 CDK5R1 p35 (human) (UniProt Q00535+Q15078); details: compound 0.5 µM
# JAK3 JH1 JH2 (human) = JAK3 JH1 JH2 (human) (UniProt P52333); details: compound 0.5 µM; ATP 10 µM
# FGR (human) = FGR (human) (UniProt P09769); details: compound 0.5 µM; ATP 10 µM
# CHEK1 (human) = CHEK1 (human) (UniProt O14757); details: compound 0.5 µM; ATP 10 µM
# NTRK1 (human) = NTRK1 (human) (UniProt P04629); details: compound 0.5 µM; ATP 10 µM
# DAPK2 (human) = DAPK2 (human) (UniProt Q9UIK4); details: compound 0.5 µM; ATP 10 µM
# PASK (human) = PASK (human) (UniProt Q96RG2); details: compound 0.5 µM; ATP 10 µM
# FRK (human) = FRK (human) (UniProt P42685); details: compound 0.5 µM; ATP 10 µM
# TSSK2 (human) = TSSK2 (human) (UniProt Q96PF2); details: compound 0.5 µM; ATP 10 µM
# MKNK2 (human) = MKNK2 (human) (UniProt Q9HBH9); details: compound 0.5 µM; ATP 10 µM
# ADRBK2 (human) = ADRBK2 (human) (UniProt P35626); details: compound 0.5 µM; ATP 10 µM
# MAP3K11 (human) = MAP3K11 (human) (UniProt Q16584); details: compound 0.5 µM; ATP 10 µM
# PIM2 (human) = PIM2 (human) (UniProt Q9P1W9); details: compound 0.5 µM; ATP 10 µM
# ULK2 (human) = ULK2 (human) (UniProt Q8IYT8); details: compound 0.5 µM; ATP 10 µM
# Sequence of ACVR1B (human) (P36896 whole entry, looked up): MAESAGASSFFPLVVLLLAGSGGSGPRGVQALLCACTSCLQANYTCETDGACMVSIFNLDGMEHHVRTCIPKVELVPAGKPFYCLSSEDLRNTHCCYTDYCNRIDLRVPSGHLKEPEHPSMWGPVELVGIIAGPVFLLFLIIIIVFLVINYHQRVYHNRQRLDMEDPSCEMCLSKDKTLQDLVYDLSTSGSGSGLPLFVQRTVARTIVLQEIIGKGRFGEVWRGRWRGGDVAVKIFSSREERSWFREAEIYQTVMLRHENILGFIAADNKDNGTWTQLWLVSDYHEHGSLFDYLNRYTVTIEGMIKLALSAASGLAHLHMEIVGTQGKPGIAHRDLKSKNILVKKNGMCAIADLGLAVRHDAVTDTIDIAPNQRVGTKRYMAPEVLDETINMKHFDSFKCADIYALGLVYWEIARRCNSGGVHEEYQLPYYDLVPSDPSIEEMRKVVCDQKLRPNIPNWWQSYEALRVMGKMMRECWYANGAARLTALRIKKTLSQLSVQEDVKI
# Sequence of NLK (human) (Q9UBE8 whole entry, looked up): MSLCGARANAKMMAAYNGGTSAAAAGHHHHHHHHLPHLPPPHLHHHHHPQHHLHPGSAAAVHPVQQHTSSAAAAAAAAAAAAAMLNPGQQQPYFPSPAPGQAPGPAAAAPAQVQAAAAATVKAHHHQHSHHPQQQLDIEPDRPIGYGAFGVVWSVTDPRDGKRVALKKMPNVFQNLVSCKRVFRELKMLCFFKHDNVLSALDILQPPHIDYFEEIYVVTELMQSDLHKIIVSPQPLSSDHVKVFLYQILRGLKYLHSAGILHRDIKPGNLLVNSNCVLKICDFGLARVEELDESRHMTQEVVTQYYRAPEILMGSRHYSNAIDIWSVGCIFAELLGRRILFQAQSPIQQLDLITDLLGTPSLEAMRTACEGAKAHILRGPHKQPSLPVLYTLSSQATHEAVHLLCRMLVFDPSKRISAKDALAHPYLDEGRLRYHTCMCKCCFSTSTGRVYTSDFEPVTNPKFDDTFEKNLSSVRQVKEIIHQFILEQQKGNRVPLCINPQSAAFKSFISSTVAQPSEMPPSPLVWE
# Sequence of CDK4 CCND1 (human) (P11802 whole entry, looked up): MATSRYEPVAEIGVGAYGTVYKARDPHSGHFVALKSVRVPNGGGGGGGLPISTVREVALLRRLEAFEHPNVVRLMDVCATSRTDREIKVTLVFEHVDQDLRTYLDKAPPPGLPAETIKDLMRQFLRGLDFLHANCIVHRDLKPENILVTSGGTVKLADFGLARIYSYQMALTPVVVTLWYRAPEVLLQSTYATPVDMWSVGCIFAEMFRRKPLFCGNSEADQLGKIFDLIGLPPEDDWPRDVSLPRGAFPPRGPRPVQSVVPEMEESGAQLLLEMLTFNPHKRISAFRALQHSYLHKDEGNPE
# Sequence of CDK4 CCND1 (human) (P24385 whole entry, looked up): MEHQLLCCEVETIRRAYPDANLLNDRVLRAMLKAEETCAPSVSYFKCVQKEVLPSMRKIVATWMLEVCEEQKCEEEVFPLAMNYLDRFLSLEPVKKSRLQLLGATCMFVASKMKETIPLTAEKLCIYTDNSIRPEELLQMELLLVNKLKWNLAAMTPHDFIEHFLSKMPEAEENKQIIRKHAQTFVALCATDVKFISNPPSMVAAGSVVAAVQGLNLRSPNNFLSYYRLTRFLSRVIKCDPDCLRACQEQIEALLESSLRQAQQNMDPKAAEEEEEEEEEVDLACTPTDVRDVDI
# Sequence of SGK2 (human) (Q9HBY8 whole entry, looked up): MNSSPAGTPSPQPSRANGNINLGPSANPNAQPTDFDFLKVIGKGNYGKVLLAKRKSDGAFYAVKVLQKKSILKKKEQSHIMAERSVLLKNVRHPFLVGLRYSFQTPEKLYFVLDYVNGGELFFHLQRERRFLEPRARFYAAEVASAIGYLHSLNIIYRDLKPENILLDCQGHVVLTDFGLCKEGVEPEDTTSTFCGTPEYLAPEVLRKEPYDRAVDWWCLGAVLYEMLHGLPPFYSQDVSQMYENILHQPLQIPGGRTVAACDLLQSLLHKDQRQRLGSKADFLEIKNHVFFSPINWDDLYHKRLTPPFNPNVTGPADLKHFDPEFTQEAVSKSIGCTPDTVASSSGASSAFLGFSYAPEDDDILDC
# Sequence of HIPK3 (human) (Q9H422 whole entry, looked up): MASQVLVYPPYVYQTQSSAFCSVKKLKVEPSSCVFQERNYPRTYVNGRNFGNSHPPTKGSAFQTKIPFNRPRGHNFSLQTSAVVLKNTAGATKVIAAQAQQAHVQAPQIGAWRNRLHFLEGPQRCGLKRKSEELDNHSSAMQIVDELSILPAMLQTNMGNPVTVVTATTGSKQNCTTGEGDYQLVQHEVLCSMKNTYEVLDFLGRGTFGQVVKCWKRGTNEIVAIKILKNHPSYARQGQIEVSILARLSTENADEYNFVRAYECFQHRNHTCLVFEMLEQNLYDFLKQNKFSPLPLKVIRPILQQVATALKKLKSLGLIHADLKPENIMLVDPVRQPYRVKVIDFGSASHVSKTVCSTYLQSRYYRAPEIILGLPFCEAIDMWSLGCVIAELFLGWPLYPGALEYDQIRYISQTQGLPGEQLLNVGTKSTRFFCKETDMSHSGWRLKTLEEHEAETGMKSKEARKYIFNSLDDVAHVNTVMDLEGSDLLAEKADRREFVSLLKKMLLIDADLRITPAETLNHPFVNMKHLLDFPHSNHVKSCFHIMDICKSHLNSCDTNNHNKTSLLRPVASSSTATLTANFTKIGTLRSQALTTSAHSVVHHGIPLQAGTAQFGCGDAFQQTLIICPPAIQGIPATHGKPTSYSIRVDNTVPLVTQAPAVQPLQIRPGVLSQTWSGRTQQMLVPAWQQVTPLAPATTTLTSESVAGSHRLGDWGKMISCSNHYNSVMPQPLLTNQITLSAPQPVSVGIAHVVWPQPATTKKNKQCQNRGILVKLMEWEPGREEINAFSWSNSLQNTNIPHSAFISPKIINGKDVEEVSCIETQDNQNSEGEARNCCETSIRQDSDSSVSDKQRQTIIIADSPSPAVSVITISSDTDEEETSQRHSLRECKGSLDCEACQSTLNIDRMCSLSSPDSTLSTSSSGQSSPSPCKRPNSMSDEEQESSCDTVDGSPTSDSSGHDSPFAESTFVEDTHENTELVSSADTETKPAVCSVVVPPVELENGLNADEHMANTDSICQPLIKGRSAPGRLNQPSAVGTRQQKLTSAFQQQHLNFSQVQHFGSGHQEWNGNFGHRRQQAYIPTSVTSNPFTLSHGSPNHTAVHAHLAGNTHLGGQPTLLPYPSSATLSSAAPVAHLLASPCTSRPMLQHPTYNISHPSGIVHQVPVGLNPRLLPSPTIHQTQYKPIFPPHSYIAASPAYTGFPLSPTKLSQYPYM
# Sequence of NEK7 (human) (Q8TDX7 whole entry, looked up): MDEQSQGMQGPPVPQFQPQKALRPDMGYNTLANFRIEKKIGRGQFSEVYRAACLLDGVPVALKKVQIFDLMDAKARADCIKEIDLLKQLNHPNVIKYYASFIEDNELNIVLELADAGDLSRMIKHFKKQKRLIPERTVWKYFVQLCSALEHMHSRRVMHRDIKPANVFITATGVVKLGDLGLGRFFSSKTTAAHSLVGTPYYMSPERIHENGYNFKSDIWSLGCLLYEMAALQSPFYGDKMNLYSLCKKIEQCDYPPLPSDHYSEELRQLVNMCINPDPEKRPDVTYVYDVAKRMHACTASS
# Sequence of MAP4K4 (human) (O95819 whole entry, looked up): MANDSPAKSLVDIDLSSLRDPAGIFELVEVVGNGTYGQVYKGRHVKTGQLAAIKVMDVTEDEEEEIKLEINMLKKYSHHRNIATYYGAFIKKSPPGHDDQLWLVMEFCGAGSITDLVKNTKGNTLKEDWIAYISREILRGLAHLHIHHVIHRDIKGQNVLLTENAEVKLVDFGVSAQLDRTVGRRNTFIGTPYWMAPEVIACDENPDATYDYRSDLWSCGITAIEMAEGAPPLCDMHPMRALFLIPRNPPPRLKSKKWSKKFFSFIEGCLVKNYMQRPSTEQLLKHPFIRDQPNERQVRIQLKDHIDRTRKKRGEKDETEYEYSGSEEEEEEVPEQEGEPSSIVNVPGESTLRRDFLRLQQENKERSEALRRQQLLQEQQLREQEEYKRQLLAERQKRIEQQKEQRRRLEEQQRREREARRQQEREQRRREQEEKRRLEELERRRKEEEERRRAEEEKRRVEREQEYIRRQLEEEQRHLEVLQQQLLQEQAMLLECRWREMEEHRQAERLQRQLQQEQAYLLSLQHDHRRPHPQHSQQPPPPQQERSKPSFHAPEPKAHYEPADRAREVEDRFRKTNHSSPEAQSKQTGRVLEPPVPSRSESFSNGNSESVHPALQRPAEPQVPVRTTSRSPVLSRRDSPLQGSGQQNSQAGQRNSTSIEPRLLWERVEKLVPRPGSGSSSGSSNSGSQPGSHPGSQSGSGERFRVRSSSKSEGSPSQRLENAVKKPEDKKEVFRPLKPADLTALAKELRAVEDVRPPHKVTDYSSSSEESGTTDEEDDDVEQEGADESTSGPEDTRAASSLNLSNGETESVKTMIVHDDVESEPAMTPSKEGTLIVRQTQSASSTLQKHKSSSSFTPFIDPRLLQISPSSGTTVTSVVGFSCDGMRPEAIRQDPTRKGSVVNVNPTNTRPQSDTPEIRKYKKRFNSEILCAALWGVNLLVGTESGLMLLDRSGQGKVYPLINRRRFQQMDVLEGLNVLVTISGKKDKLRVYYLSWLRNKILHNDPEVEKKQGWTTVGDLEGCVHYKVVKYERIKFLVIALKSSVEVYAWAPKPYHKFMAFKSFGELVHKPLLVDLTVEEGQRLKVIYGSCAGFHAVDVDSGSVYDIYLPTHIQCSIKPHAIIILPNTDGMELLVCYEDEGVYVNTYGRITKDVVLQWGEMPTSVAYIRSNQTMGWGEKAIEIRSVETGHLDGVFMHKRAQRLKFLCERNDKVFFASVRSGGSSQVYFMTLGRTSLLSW
smiles,measurement,setting,value
O=c1c(-c2ccc(F)cc2)c(-c2ccncc2)[nH]n1-c1ccc(Cl)cc1,residual activity,CLK4 (human),78.9%
same,residual activity,GSK3B (human),91.6%
same,residual activity,MAP4K4 (human),93.5%
same,residual activity,BRSK2 (human),90.8%
same,residual activity,RAF1 (human),61.4%
same,residual activity,CSNK1D (human); ATP 10 µM,26.7%
same,residual activity,NUAK1 (human),89.1%
same,residual activity,MAPK14 (human),11.2%
same,residual activity,WNK2 (human),112%
same,residual activity,NEK7 (human),90.1%
same,residual activity,NTRK2 (human),88.5%
same,residual activity,SRPK2 (human),94.4%
same,residual activity,JAK2 JH1 JH2 (human),95.1%
same,residual activity,IRAK4 (human),81.9%
same,residual activity,PRKD1 (human),84.7%
same,residual activity,NLK (human),16%
same,residual activity,MARK4 (human),80%
same,residual activity,ACVR1B (human),123%
same,residual activity,HIPK3 (human),101%
same,residual activity,PIM1 (human),101%
same,residual activity,MAP3K9 (human),103%
same,residual activity,CAMK2D (human),95.6%
same,residual activity,TYRO3 (human),105%
same,residual activity,STK16 (human),100%
same,residual activity,CDK4 CCND1 (human); ATP 10 µM,102%
same,residual activity,GRK6 (human),90.1%
same,residual activity,SGK2 (human),94.3%
same,residual activity,PRKACA (human); ATP 10 µM,90.7%
same,residual activity,CDK5 CDK5R1 p35 (human); ATP 10 µM,104%
same,residual activity,JAK3 JH1 JH2 (human),106%
same,residual activity,FGR (human),87.4%
same,residual activity,CHEK1 (human),101%
same,residual activity,NTRK1 (human),95.5%
same,residual activity,DAPK2 (human),104%
same,residual activity,PASK (human),93.6%
same,residual activity,FRK (human),78.5%
same,residual activity,TSSK2 (human),80%
same,residual activity,MKNK2 (human),97.2%
same,residual activity,ADRBK2 (human),95%
same,residual activity,MAP3K11 (human),98%
same,residual activity,PIM2 (human),114%
CN[C@@H]1C[C@H]2O[C@@](C)([C@@H]1OC)n1c3ccccc3c3c4c(c5c6ccccc6n2c5c31)C(=O)NC4,residual activity,CLK4 (human),6.62%
same,residual activity,BRSK2 (human),3.53%
same,residual activity,MARK4 (human),-0.0069%
same,residual activity,PIM1 (human),1.47%
same,residual activity,CAMK2D (human),3.05%
same,residual activity,PRKACA (human); ATP 10 µM,1.93%
same,residual activity,CDK5 CDK5R1 p35 (human); ATP 10 µM,1.92%
same,residual activity,FGR (human),0.266%
same,residual activity,CHEK1 (human),1.63%
same,residual activity,FRK (human),5.5%
N/C(=N\N=C/c1ccc(-c2cccc([N+](=O)[O-])c2)o1)N[N+](=O)[O-],residual activity,CLK4 (human),103%
same,residual activity,GSK3B (human),117%
same,residual activity,MAP4K4 (human),95.6%
same,residual activity,BRSK2 (human),106%
same,residual activity,RAF1 (human),98.1%
same,residual activity,CSNK1D (human); ATP 10 µM,99.8%
same,residual activity,NUAK1 (human),96.4%
same,residual activity,MAPK14 (human),90.2%
same,residual activity,WNK2 (human),106%
same,residual activity,NEK7 (human),102%
same,residual activity,NTRK2 (human),82.4%
same,residual activity,SRPK2 (human),101%
same,residual activity,JAK2 JH1 JH2 (human),98.8%
same,residual activity,IRAK4 (human),87.3%
same,residual activity,PRKD1 (human),103%
same,residual activity,ULK2 (human),87.3%
same,residual activity,NLK (human),103%
same,residual activity,MARK4 (human),87.6%
same,residual activity,ACVR1B (human),101%
same,residual activity,PIM1 (human),92.9%
same,residual activity,CAMK2D (human),90.1%
same,residual activity,TYRO3 (human),91.5%
same,residual activity,STK16 (human),105%
same,residual activity,CDK4 CCND1 (human); ATP 10 µM,96.6%
same,residual activity,GRK6 (human),98.3%
same,residual activity,SGK2 (human),101%
same,residual activity,PRKACA (human); ATP 10 µM,93.3%
same,residual activity,CDK5 CDK5R1 p35 (human); ATP 10 µM,89.2%
same,residual activity,JAK3 JH1 JH2 (human),103%
same,residual activity,FGR (human),90.9%
same,residual activity,NTRK1 (human),96%
same,residual activity,DAPK2 (human),80.1%
same,residual activity,PASK (human),88.4%
same,residual activity,FRK (human),90.1%
same,residual activity,TSSK2 (human),101%
same,residual activity,MKNK2 (human),89.3%
same,residual activity,ADRBK2 (human),102%
same,residual activity,MAP3K11 (human),99.4%
same,residual activity,PIM2 (human),106%
COc1cc2c(cc1OC)-c1[nH]nc(Nc3cccc(F)c3)c1C2,residual activity,CLK4 (human),77.7%
same,residual activity,GSK3B (human),96.6%
same,residual activity,MAP4K4 (human),55.5%
same,residual activity,BRSK2 (human),92.1%
same,residual activity,CSNK1D (human); ATP 10 µM,99.9%
same,residual activity,NUAK1 (human),88.5%
same,residual activity,MAPK14 (human),94.3%
same,residual activity,WNK2 (human),104%
same,residual activity,NEK7 (human),100%
same,residual activity,NTRK2 (human),102%
same,residual activity,SRPK2 (human),87.8%
same,residual activity,JAK2 JH1 JH2 (human),107%
same,residual activity,IRAK4 (human),70%
same,residual activity,PRKD1 (human),93.6%
same,residual activity,ULK2 (human),97.3%
same,residual activity,NLK (human),74.1%
same,residual activity,MARK4 (human),70.6%
same,residual activity,ACVR1B (human),92.9%
same,residual activity,HIPK3 (human),100%
same,residual activity,PIM1 (human),97.3%
same,residual activity,MAP3K9 (human),90%
same,residual activity,CAMK2D (human),103%
same,residual activity,TYRO3 (human),97.2%
same,residual activity,STK16 (human),96.8%
same,residual activity,CDK4 CCND1 (human); ATP 10 µM,93.9%
same,residual activity,GRK6 (human),89.4%
same,residual activity,SGK2 (human),98.6%
same,residual activity,PRKACA (human); ATP 10 µM,92.8%
same,residual activity,CDK5 CDK5R1 p35 (human); ATP 10 µM,102%
same,residual activity,JAK3 JH1 JH2 (human),98.6%
same,residual activity,FGR (human),47.2%
same,residual activity,CHEK1 (human),92.4%
same,residual activity,NTRK1 (human),98.8%
same,residual activity,DAPK2 (human),86.7%
same,residual activity,PASK (human),93.3%
same,residual activity,FRK (human),67.9%
same,residual activity,TSSK2 (human),75.1%
same,residual activity,MKNK2 (human),91.5%
same,residual activity,ADRBK2 (human),98.4%
same,residual activity,MAP3K11 (human),93.9%
same,residual activity,PIM2 (human),119%
O=c1[nH]c2ccccc2n1C1CCN(Cc2ccc(-c3nc4cc5[nH]cnc5cc4nc3-c3ccccc3)cc2)CC1,residual activity,CLK4 (human),92.8%
same,residual activity,GSK3B (human),113%
same,residual activity,MAP4K4 (human),99.5%
same,residual activity,BRSK2 (human),106%
same,residual activity,RAF1 (human),94.7%
same,residual activity,CSNK1D (human),100%
same,residual activity,NUAK1 (human),103%
same,residual activity,MAPK14 (human),99.7%
same,residual activity,WNK2 (human),115%
same,residual activity,NEK7 (human),99.6%
same,residual activity,NTRK2 (human),99.4%
same,residual activity,SRPK2 (human),116%
same,residual activity,JAK2 JH1 JH2 (human),104%
same,residual activity,IRAK4 (human),201%
same,residual activity,PRKD1 (human),94.7%
same,residual activity,NLK (human),104%
same,residual activity,MARK4 (human),102%
same,residual activity,ACVR1B (human),111%
same,residual activity,HIPK3 (human),102%
same,residual activity,PIM1 (human),106%
same,residual activity,MAP3K9 (human),93.9%
same,residual activity,CAMK2D (human),97.7%
same,residual activity,TYRO3 (human),103%
same,residual activity,STK16 (human),99.5%
same,residual activity,CDK4 CCND1 (human),108%
same,residual activity,GRK6 (human),88%
same,residual activity,SGK2 (human),112%
same,residual activity,PRKACA (human),106%
same,residual activity,CDK5 CDK5R1 p35 (human),91.9%
same,residual activity,JAK3 JH1 JH2 (human),100%
same,residual activity,FGR (human),95.7%
same,residual activity,CHEK1 (human),107%
same,residual activity,NTRK1 (human),99.4%
same,residual activity,DAPK2 (human),99%
same,residual activity,PASK (human),110%
same,residual activity,FRK (human),102%
same,residual activity,TSSK2 (human),96.2%
same,residual activity,MKNK2 (human),98.7%
same,residual activity,ADRBK2 (human),87.3%
same,residual activity,MAP3K11 (human),94.6%
same,residual activity,PIM2 (human),111%
